According to patent US20230097707A1, “METHODS AND ARTICLES FOR KEEPING FOOD FRESHER FOR LONGER AND SHELF-LIFE EXTENSION TO ENHANCE FOOD SECURITY AND SAFETY” (priority 2021, published 2023):

Legend:
[1] = small animal oral toxicity test; format: in vivo; conditions: albino rat, aqueous solutions derived from concentrate (EPA/MRID)
Text: Example 1 is a small animal oral toxicity test of 3-(tri-methoxysilyl)propyldimethyl octadecyl ammonium chloride in aqueous solutions derived from concentrate. The small animal was an albino rat (EPA/MRID.) The result acute oral LD50 at 12.27 g (grams) per kg (kilogram.) That is, the lethal dose in 50% of the test subjects 12.27 grams per kilogram of body weight. This translates to a 100 kg person ingesting 1.227 kg of the raw material (or 1723 liters) at one time. The monomer poses no ingestion hazard.

[2] = tested on: Staphylococcus aureus ATCC 6538; conditions: coated paper, 0.15% by weight of BKC; cited from earlier work
[3] = tested on: Escherichia coli ATCC 8739; conditions: coated paper, 0.15% by weight of BKC; cited from earlier work

Compound | acute oral LD50 [1] | inhibition [2] [%] | inhibition [3] [%]
CCCCCCCCCCCCCCCCCC[N+](C)(C)CCC[Si](OC)(OC)OC.[Cl-] [1-Octadecanaminium, N,N-dimethyl-N-[3-(trimethoxysilyl)propyl]-, chloride (1:1)] | 12.27 g (grams) per kg (kilogram.) | – | –
N-Alkyl-N-benzyl-N,N-dimethylammonium chloride [BKC] | – | ~100 | ~100
